# Source: article PMC9706563, “Development of Macrocyclic PRMT5–Adaptor Protein Interaction Inhibitors” (Journal of Medicinal Chemistry, 2022)
# Numbered stars: 1 amine (or outer) side, 2 acyl side, 3 side chain; on linkers, the order of the positions; unused ones are H or OH. Bridge positions count the residues as written; N and C are the ends. Square brackets hold non-standard residues; d marks the D form. Peptide text beside a SMILES is read from it. * marks the point of attachment. FITC = O=C1OC2(c3ccc(O)cc3Oc3cc(O)ccc32)c2ccc(NC(=S)*)cc21; dNva(5-ylidene) = O=C([C@@H](CCC=[*:3])N[*:1])[*:2]; NMeF = CN[C@@H](Cc1ccccc1)C(=O)O; hPhe = N[C@@H](CCc1ccccc1)C(=O)O; dAllylGly = C=CC[C@@H](N)C(=O)O; NMeD = CN[C@@H](CC(=O)O)C(=O)O; NMeV = CN[C@H](C(=O)O)C(C)C; NMeA = CN[C@@H](C)C(=O)O; Sar = CNCC(=O)O
# Molecular target: T1, PRMT5-MEP50 (Homo sapiens, UniProt O14744)
# T1 construct: The compounds were tested by means of FP with the full-length PRMT5-MEP50 complex; made in house
# T1 sequence (O14744 whole entry): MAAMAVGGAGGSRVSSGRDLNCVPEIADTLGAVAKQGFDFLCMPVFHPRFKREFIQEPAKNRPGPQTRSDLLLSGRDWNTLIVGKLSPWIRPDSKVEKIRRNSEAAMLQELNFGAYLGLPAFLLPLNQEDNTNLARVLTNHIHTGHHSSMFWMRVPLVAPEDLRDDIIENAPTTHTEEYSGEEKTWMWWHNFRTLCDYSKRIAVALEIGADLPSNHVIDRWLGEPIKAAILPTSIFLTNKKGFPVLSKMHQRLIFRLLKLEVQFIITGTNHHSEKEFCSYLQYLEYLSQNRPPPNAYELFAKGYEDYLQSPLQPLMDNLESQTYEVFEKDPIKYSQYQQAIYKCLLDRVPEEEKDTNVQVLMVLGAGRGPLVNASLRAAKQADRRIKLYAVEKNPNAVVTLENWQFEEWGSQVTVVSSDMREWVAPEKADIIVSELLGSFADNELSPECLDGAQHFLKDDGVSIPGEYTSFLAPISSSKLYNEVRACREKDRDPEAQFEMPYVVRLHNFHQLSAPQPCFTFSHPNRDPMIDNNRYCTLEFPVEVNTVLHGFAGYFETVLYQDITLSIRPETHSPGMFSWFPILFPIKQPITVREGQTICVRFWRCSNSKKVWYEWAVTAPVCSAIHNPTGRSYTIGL
# T1 sequence (Q9BQA1 whole entry partner): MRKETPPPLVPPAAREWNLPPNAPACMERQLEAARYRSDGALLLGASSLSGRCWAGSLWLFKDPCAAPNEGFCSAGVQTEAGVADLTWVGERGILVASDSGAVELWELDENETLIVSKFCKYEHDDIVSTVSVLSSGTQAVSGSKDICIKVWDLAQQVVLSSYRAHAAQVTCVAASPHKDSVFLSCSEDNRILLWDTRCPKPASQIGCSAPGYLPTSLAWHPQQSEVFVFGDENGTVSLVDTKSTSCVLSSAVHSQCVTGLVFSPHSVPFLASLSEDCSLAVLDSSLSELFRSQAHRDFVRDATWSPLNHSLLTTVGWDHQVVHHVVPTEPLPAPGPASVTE
# Experiment: Direct binding fluorescence polarization (FP) assay of FITC-labeled peptides
# Settings: FITC-labeled peptide 1 nM, PRMT5-MEP50 titrated, read-out: KD
# Procedure: The assay was performed in a buffer of 50 mM 4-(2-hydroxyethyl)-1-piperazineethanesulfonic acid (HEPES), 250 mM NaCl, 1 mM tris(2-carboxyethyl)phosphine (TCEP), and 0.01% (v/v) Tween 20, pH 8.0, in black, 384-well plates with a total volume of 10 μL per well. […] The plates were incubated at room temperature for 1 to 2 h and analyzed on a plate reader using 485 nm excitation and 535 nm emission wavelength. The assay was performed in triplicate.
row,Kd,Compound
1,352 ± 49 nM,CC(=O)N[C@H](C(=O)N1CCC[C@H]1C(=O)NC1CC=CCC[C@@H](C(=O)N[C@@H](CC(=O)O)C(=O)N[C@@H](C)C(=O)N[C@@H](CC(=O)O)C(=O)N[C@@H](CCCCNC(=S)Nc2ccc3c(c2)C(=O)OC32c3ccc(O)cc3Oc3cc(O)ccc32)C(N)=O)NC(=O)[C@H](Cc2ccccc2)NC(=O)[C@H](CCC(N)=O)NC1=O)C(C)C (stereo partly shown) [Compound 18]
2,670 ± 187 nM,CC(=O)N[C@H](C(=O)N1CCC[C@H]1C(=O)NCC(=O)N[C@@H](CCC(N)=O)C(=O)N[C@@H](Cc1ccccc1)C(=O)N[C@@H](CC(=O)O)C(=O)N[C@@H](CC(=O)O)C(=O)N[C@@H](C)C(=O)N[C@@H](CC(=O)O)C(=O)N[C@@H](CCCCNC(=S)Nc1ccc2c(c1)C(=O)OC21c2ccc(O)cc2Oc2cc(O)ccc21)C(N)=O)C(C)C [Compound 29] (Ac-VPGQFDDADK(FITC)-NH2)
3,600 ± 100 nM,CC(=O)N[C@H](C(=O)N1CCC[C@H]1C(=O)NCC(=O)N[C@@H](CCC(N)=O)C(=O)N[C@@H](Cc1ccccc1)C(=O)N[C@@H](CC(=O)O)C(=O)N[C@@H](CC(=O)O)C(=O)N[C@@H](C)C(=O)N(C)[C@@H](CC(=O)O)C(=O)N[C@@H](CCCCNC(=S)Nc1ccc2c(c1)C(=O)OC21c2ccc(O)cc2Oc2cc(O)ccc21)C(N)=O)C(C)C [Compound 44] (Ac-VPGQFDDA[NMeD]K(FITC)-NH2)
4,89 ± 11 nM,CC(=O)N[C@H](C(=O)N1CCC[C@H]1C(=O)N[C@@H]1CCCCC[C@@H](C(=O)N[C@@H](CC(=O)O)C(=O)N[C@@H](C)C(=O)N[C@@H](CC(C(=O)O)C(=O)O)C(=O)N[C@@H](CCCCNC(=S)Nc2ccc3c(c2)C(=O)OC32c3ccc(O)cc3Oc3cc(O)ccc32)C(N)=O)NC(=O)[C@H](Cc2ccc([N+](=O)[O-])cc2)NC(=O)[C@H](CCC(N)=O)NC1=O)C(C)C [Compound 50]

row,Compound,Kd
1,CC(C)[C@H](NC(=O)COCCOCCNC(=S)Nc1ccc2c(c1)C(=O)OC21c2ccc(O)cc2Oc2cc(O)ccc21)C(=O)N1CCC[C@H]1C(=O)NCC(=O)N[C@@H](CCC(N)=O)C(=O)N[C@@H](Cc1ccccc1)C(=O)N[C@@H](CC(=O)O)C(=O)N[C@@H](CC(=O)O)C(=O)N[C@@H](C)C(=O)N[C@@H](CC(=O)O)C(N)=O [Compound 28] (HELM PEPTIDE1{[O=C1OC2(c3ccc(O)cc3Oc3cc(O)ccc32)c2ccc(NC(=S)[*:2])cc21].[O=C(COCCOCCN[*:1])[*:2]].V.P.G.Q.F.D.D.A.D.[am]}$$$$V2.0),905 ± 104 nM

# Same assay, conditions: supplementary CSV, read-out: PRMT5-MEP50 Kd
row,Compound,Kd
1,CC(C)[C@H](NC(=O)[C@H](CCCNC(=N)N)NC(=O)[C@H](CO)NC(=O)COCCOCCNC(=S)Nc1ccc2c(c1)C(=O)OC21c2ccc(O)cc2Oc2cc(O)ccc21)C(=O)N[C@H](C(=O)N1CCC[C@H]1C(=O)N[C@@H]1CCNC(=O)CC[C@H](C(=O)N[C@@H](CC(=O)O)C(=O)N[C@@H](C)C(=O)N[C@@H](CC(=O)O)C(N)=O)NC(=O)[C@H](Cc2ccccc2)NC(=O)[C@H](CCC(N)=O)NC1=O)C(C)C [Compound 12],> 2000 nM
2,CC(C)[C@H](NC(=O)[C@H](CCCNC(=N)N)NC(=O)[C@H](CO)NC(=O)COCCOCCNC(=S)Nc1ccc2c(c1)C(=O)OC21c2ccc(O)cc2Oc2cc(O)ccc21)C(=O)N[C@H](C(=O)N1CCC[C@H]1C(=O)N[C@@H]1CCCC[C@H](C(=O)N[C@@H](CC(=O)O)C(=O)N[C@@H](C)C(=O)N[C@@H](CC(=O)O)C(N)=O)NC(=O)[C@H](Cc2ccccc2)NC(=O)[C@H](CCC(N)=O)NC1=O)C(C)C [Compound 16],> 2000 nM
3,CC(=O)N[C@H](C(=O)N1CCC[C@H]1C(=O)N[C@@H]1CC=CCC[C@H](C(=O)N[C@@H](CC(=O)O)C(=O)N[C@@H](C)C(=O)N[C@@H](CC(=O)O)C(=O)N[C@@H](CCCCNC(=S)Nc2ccc3c(c2)C(=O)OC32c3ccc(O)cc3Oc3cc(O)ccc32)C(N)=O)NC(=O)[C@H](Cc2ccccc2)NC(=O)[C@H](CCC(N)=O)NC1=O)C(C)C [Compound 23],> 2000 nM
4,CC(=O)N[C@H](C(=O)N1CCC[C@H]1C(=O)N[C@@H]1CCC=CC[C@H](C(=O)N[C@@H](CC(=O)O)C(=O)N[C@@H](C)C(=O)N[C@@H](CC(=O)O)C(=O)N[C@@H](CCCCNC(=S)Nc2ccc3c(c2)C(=O)OC32c3ccc(O)cc3Oc3cc(O)ccc32)C(N)=O)NC(=O)[C@H](Cc2ccccc2)NC(=O)[C@H](CCC(N)=O)NC1=O)C(C)C [Compound 24] (Ac-VP[dNva(5-ylidene)]QF[dAllylGly]DADK(FITC)-NH2; staple 3-6),> 2000 nM
5,CC(=O)N[C@H](C(=O)N1CCC[C@H]1C(=O)N[C@@H]1CCCCC[C@H](C(=O)N[C@@H](CC(=O)O)C(=O)N[C@@H](C)C(=O)N[C@@H](CC(=O)O)C(=O)N[C@@H](CCCCNC(=S)Nc2ccc3c(c2)C(=O)OC32c3ccc(O)cc3Oc3cc(O)ccc32)C(N)=O)NC(=O)[C@H](Cc2ccccc2)NC(=O)[C@H](CCC(N)=O)NC1=O)C(C)C [Compound 26],> 2000 nM
6,CC(=O)N[C@H](C(=O)N1CCC[C@H]1C(=O)N[C@@H]1CCCCCC[C@H](C(=O)N[C@@H](CC(=O)O)C(=O)N[C@@H](C)C(=O)N[C@@H](CC(=O)O)C(=O)N[C@@H](CCCCNC(=S)Nc2ccc3c(c2)C(=O)OC32c3ccc(O)cc3Oc3cc(O)ccc32)C(N)=O)NC(=O)[C@H](Cc2ccccc2)NC(=O)[C@H](CCC(N)=O)NC1=O)C(C)C [Compound 27],> 2000 nM
7,CC(=O)N[C@H](C(=O)N1CCC[C@H]1C(=O)NCC(=O)N[C@@H](CCC(N)=O)C(=O)N[C@@H](Cc1ccccc1)C(=O)N[C@@H](CC(=O)O)C(=O)N[C@@H](CC(=O)O)C(=O)N[C@@H](C)C(=O)N[C@@H](CCC(=O)O)C(=O)N[C@@H](CCCCNC(=S)Nc1ccc2c(c1)C(=O)OC21c2ccc(O)cc2Oc2cc(O)ccc21)C(N)=O)C(C)C [Compound 33] (Ac-VPGQFDDAEK(FITC)-NH2),531 ± 23 nM
8,CC(=O)N[C@H](C(=O)N1CCC[C@H]1C(=O)NCC(=O)N[C@@H](CCC(N)=O)C(=O)N[C@@H](Cc1ccccc1)C(=O)N[C@@H](CC(=O)O)C(=O)N[C@@H](CC(=O)O)C(=O)N[C@@H](C)C(=O)N(C)[C@@H](CC(=O)O)C(=O)N[C@@H](CCCCNC(=S)Nc1ccc2c(c1)C(=O)OC21c2ccc(O)cc2Oc2cc(O)ccc21)C(N)=O)C(C)C [Compound 44] (Ac-VPGQFDDA[NMeD]K(FITC)-NH2),587 ± 142 nM
9,"CC(=O)N[C@H](C(=O)N1CCC[C@H]1C(=O)NCC(=O)N[C@@H](CCC(N)=O)C(=O)N[C@@H](Cc1ccccc1)C(=O)N[C@@H](CC(=O)O)C(=O)N[C@@H](CC(=O)O)C(=O)N(C)[C@@H](C)C(=O)N[C@@H](CC(=O)O)C(=O)N[C@@H](CCCCNC(=S)Nc1ccc2c(c1)C(=O)OC21c2ccc(O)cc2Oc2cc(O)ccc21)C(N)=O)C(C)C [Compound 45, Ac-VPGQFDD-(N-Me)A-DK(Fitc)-NH2] (Ac-VPGQFDD[NMeA]DK(FITC)-NH2)",> 2000 nM

# The next lines start with the values.
row,Kd,Compound
1,> 2000 nM,"CC(=O)N[C@H](C(=O)N1CCC[C@H]1C(=O)NCC(=O)N[C@@H](CCC(N)=O)C(=O)N[C@@H](Cc1ccccc1)C(=O)N[C@@H](CC(=O)O)C(=O)N(C)[C@@H](CC(=O)O)C(=O)N[C@@H](C)C(=O)N[C@@H](CC(=O)O)C(=O)N[C@@H](CCCCNC(=S)Nc1ccc2c(c1)C(=O)OC21c2ccc(O)cc2Oc2cc(O)ccc21)C(N)=O)C(C)C [Compound 46, Ac-VPGQFD-(N-Me)D-ADK(Fitc)-NH2] (Ac-VPGQFD[NMeD]ADK(FITC)-NH2)"
2,> 2000 nM,"CC(=O)N[C@H](C(=O)N1CCC[C@H]1C(=O)NCC(=O)N[C@@H](CCC(N)=O)C(=O)N(C)[C@@H](Cc1ccccc1)C(=O)N[C@@H](CC(=O)O)C(=O)N[C@@H](CC(=O)O)C(=O)N[C@@H](C)C(=O)N[C@@H](CC(=O)O)C(=O)N[C@@H](CCCCNC(=S)Nc1ccc2c(c1)C(=O)OC21c2ccc(O)cc2Oc2cc(O)ccc21)C(N)=O)C(C)C [Compound 47, Ac-VPGQ-(N-Me)F-DDADK(Fitc)-NH2] (Ac-VPGQ[NMeF]DDADK(FITC)-NH2)"
3,> 2000 nM,"CC(=O)N[C@H](C(=O)N1CCC[C@H]1C(=O)N(C)CC(=O)N[C@@H](CCC(N)=O)C(=O)N[C@@H](Cc1ccccc1)C(=O)N[C@@H](CC(=O)O)C(=O)N[C@@H](CC(=O)O)C(=O)N[C@@H](C)C(=O)N[C@@H](CC(=O)O)C(=O)N[C@@H](CCCCNC(=S)Nc1ccc2c(c1)C(=O)OC21c2ccc(O)cc2Oc2cc(O)ccc21)C(N)=O)C(C)C [Compound 48, Ac-VP-(N-Me)G-QFDDADK(Fitc)-NH2] (Ac-VP[Sar]QFDDADK(FITC)-NH2)"
4,> 2000 nM,CC(=O)N(C)[C@H](C(=O)N1CCC[C@H]1C(=O)NCC(=O)N[C@@H](CCC(N)=O)C(=O)N[C@@H](Cc1ccccc1)C(=O)N[C@@H](CC(=O)O)C(=O)N[C@@H](CC(=O)O)C(=O)N[C@@H](C)C(=O)N[C@@H](CC(=O)O)C(=O)N[C@@H](CCCCNC(=S)Nc1ccc2c(c1)C(=O)OC21c2ccc(O)cc2Oc2cc(O)ccc21)C(N)=O)C(C)C [Compound 49] (Ac-[NMeV]PGQFDDADK(FITC)-NH2)
5,> 1000 nM,CC(=O)N[C@@H](Cc1ccc(O)cc1)C(=O)N1CCC[C@H]1C(=O)NCC(=O)N[C@@H](CCC(N)=O)C(=O)N[C@@H](Cc1ccccc1)C(=O)N[C@@H](CC(=O)O)C(=O)N[C@@H](CC(=O)O)C(=O)N[C@@H](C)C(=O)N[C@@H](CC(=O)O)C(=O)N[C@@H](CCCCNC(=S)Nc1ccc2c(c1)C(=O)OC21c2ccc(O)cc2Oc2cc(O)ccc21)C(N)=O [Compound S2] (Ac-YPGQFDDADK(FITC)-NH2)
6,> 1000 nM,CC(=O)N[C@@H](Cc1ccccc1)C(=O)N1CCC[C@H]1C(=O)NCC(=O)N[C@@H](CCC(N)=O)C(=O)N[C@@H](Cc1ccccc1)C(=O)N[C@@H](CC(=O)O)C(=O)N[C@@H](CC(=O)O)C(=O)N[C@@H](C)C(=O)N[C@@H](CC(=O)O)C(=O)N[C@@H](CCCCNC(=S)Nc1ccc2c(c1)C(=O)OC21c2ccc(O)cc2Oc2cc(O)ccc21)C(N)=O [Compound S3] (Ac-FPGQFDDADK(FITC)-NH2)
7,> 1000 nM,CC(=O)N[C@@H](CCc1ccccc1)C(=O)N1CCC[C@H]1C(=O)NCC(=O)N[C@@H](CCC(N)=O)C(=O)N[C@@H](Cc1ccccc1)C(=O)N[C@@H](CC(=O)O)C(=O)N[C@@H](CC(=O)O)C(=O)N[C@@H](C)C(=O)N[C@@H](CC(=O)O)C(=O)N[C@@H](CCCCNC(=S)Nc1ccc2c(c1)C(=O)OC21c2ccc(O)cc2Oc2cc(O)ccc21)C(N)=O [Compound S4] (Ac-[hPhe]PGQFDDADK(FITC)-NH2)
8,> 1000 nM,CC(=O)N[C@@H](Cc1c[nH]c2ccccc12)C(=O)N1CCC[C@H]1C(=O)NCC(=O)N[C@@H](CCC(N)=O)C(=O)N[C@@H](Cc1ccccc1)C(=O)N[C@@H](CC(=O)O)C(=O)N[C@@H](CC(=O)O)C(=O)N[C@@H](C)C(=O)N[C@@H](CC(=O)O)C(=O)N[C@@H](CCCCNC(=S)Nc1ccc2c(c1)C(=O)OC21c2ccc(O)cc2Oc2cc(O)ccc21)C(N)=O [Compound S5] (Ac-WPGQFDDADK(FITC)-NH2)
